According to US20140107218A1, “METHODS FOR MAINTAINING EYE HEALTH AND AMELIORATING OPTHALMIC MALADIES IN ANIMALS” (NESTEC SA, priority 2012, published 2014):

System: rabbit lenses
Experiment: Calcium-induced lens opacification in cultured rabbit lenses, transparency evaluation
Assay type: cell-based
Settings: 20 mM CaCl2 plus polyamine 100 mM; for Effect on calcium-induced lens opacification (in words): 72 hours; for Percent Light Transmittance After Treatments (Average): 72 hours of treatment, absorbance at 394 nm, triplicate, Control 73.3, Ca alone 47.3
Description: Rabbit eyes were obtained from a rabbit renderer and were dissected within twenty-four (24) hours of the animal's death. The lenses were removed aseptically and cultured in M199 media, 20 mM HEPES, 100 units/ml penicillin, […] streptomycin and 0.1% BSA under 5% CO2 at 37° C. in a humidified incubator for twenty-four hours before the start of treatment. Lens opacification was induced with 20 mM CaCl2, according to the method of Hytower and Dering (Hightower Kr, Dering, M (1984) Invest Ophthalmol Vis Sci 251:108-111). Polyamines were added at a concentration of 100 mM. All experiments were done in triplicate.
Transparency Evaluation: When proteins are modified or oxidized they aggregate, and cause protein solutions to become cloudy or translucent because the proteins lose solubility. The turbidity of a protein solution is a measure of protein aggregation. Turbidity of the lenses after treatment was determined by measuring the increase in protein absorbency. Control (no Ca++), Ca++ and Ca++ with polyamines spermidine, spermine, or putrescine were collected and homogenized in lysis buffer [50 mM Tris-HCl, pH 8.0; 150 mM NaCl, 1% Igepal and protease inhibitor cocktail (Sigma)] after seventy-two (72) hours of treatment. Absorbance was measured at 394 nm for each sample using a spectrophotometer. Transparency was calculated as a function of the percent transmittance according to Jain (Jain Ak, Lim G, Langford M, Jain Sk (2002) Free Radic Biol Med 33:1615-1621).

With `NCCCCN` [Putrescine, putrescine] the “Effect on calcium-induced lens opacification (in words)” value was “reduce calcium-induced lens opacification” and the “Percent Light Transmittance After Treatments (Average)” value was 65.7%.
For `NCCCCNCCCN` [Spermidine, spermidine], the “Effect on calcium-induced lens opacification (in words)” value was “reduce calcium-induced lens opacification” and the “Percent Light Transmittance After Treatments (Average)” value was 56.8%.
With `NCCCNCCCCNCCCN` [Spermine, spermine] the “Percent Light Transmittance After Treatments (Average)” value was 53%.
